Test results as given in US8686152B2, “4,4-disubstituted piperidine derivatives useful as inhibitors of dipeptidyl peptidase-1 (DPP-1)” (Janssen Pharmaceutica NV, priority 2010, dated 2014).
Structures can show the parent of a compound that is named as a salt.

Target: T1, recombinant human DPP-1 (Cathepsin C) (Homo sapiens, UniProt P53634)
T1 construct: made in house
Assay: DPP-1 Inhibition Assay (In Vitro), fluorogenic substrate GR-AMC
Type: biochemical
Conditions: 0.15 nM DPP-1, 10 uM GR-AMC, pH 7.0, room temperature; average value where tested multiple times
Protocol: Test compounds were assessed for DPP-1 (Cathepsin C) inhibitory activity using a fluorogenic substrate, GR-AMC (Glycine-Arginine-amino-4-methylcoumarin, Bachem, I-1215). The amount of amino-methylcoumarin released is proportional to the DPP-1 activity, and the reaction is monitored kinetically with a Molecular Devices plate reader using black 96-well plates.
All compounds were tested under room temperature conditions. The assay buffer consisted of 50 mM HEPES, pH 7.0, 100 mM NaCl, 2 mM glutathione (GSH), and 0.002% TWEEN 20. GSH and TWEEN 20 were added to the buffer fresh daily. Just prior to use, an in-house preparation of recombinant human DPP-1 (240 μM stock, MW 49.6 kD) was diluted 600-fold in assay buffer containing fresh 2 mM dithiothreitol (DTT) to activate the enzyme, then diluted into assay buffer (without DTT) 133-fold for a DPP-1 working solution of 3 nM. Test compounds were diluted in DMSO for 20× their final assay concentrations.
Additions to a 96-well black Costar 3915 plates were as follows: 90 μL of 11 μM GR-AMC, 5 μL test compound (followed by mixing), and 5 μL 3 nM DPP-1 to start the reaction. Fluorescent reactions were monitored kinetically at 360 nm excitation, 440 nm emission on a Molecular Devices Spectramax XPS reader. The Softmax Pro software of the reader determined the initial velocity of the selected data (the first 3-5 minutes of the reaction), and the best linear regression fit of the initial kinetic data. Final assay conditions were 0.15 nM DPP-1, 10 uM GR-AMC, 50 mM HEPES, pH 7.0, 100 mM NaCl, 2 mM GSH, 0.002% TWEEN 20, 1 uM DTT, 5.0% DMSO. Initial velocity rates were plotted vs. test compound concentration by use of a four-parameter logistics equation (nonlinear regression, sigmoidal dose-response (variable slope), with fixed Hill (1.0) using GraphPad Prism® software for determination of DPP-1 IC50. Within-run assay coefficient of variation (CV) was generally <10%; between-run CV <20%.
Representative compounds of the present invention were tested according to the procedure as described above, with results as listed in Table 5, below.

T1 sequence (P53634 25-463): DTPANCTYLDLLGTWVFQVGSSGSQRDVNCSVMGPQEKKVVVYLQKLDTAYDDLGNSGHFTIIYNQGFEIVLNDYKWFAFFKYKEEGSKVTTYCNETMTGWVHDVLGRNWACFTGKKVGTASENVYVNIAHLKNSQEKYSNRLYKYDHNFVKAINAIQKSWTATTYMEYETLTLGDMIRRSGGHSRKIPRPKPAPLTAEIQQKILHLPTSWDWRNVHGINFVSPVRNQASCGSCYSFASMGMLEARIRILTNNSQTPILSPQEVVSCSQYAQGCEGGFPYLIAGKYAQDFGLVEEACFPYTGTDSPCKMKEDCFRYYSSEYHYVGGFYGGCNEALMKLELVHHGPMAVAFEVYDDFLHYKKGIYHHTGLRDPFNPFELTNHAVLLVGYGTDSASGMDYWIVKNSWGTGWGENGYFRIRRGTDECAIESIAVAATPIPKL

Row | Compound | IC50 [nM]
1 | CC[C@H](N)C(=O)N1CCC(C(=O)N(C)C2CCCCC2)(c2ccccc2)CC1 [Compound 138] | 1700
2 | N[C@@H](Cc1c[nH]cn1)C(=O)N1CCC(Cc2ccc(C(F)(F)F)cc2)(C(=O)OCC2CCCCC2)CC1 [Compound 20] | 3100
3 | N[C@@H](Cc1c[nH]cn1)C(=O)N1CCC(Cc2ccccc2)(C(=O)OCC2CCCCC2)CC1 [Compound 12] | ~5000
4 | CC[C@H](N)C(=O)N1CCC(C(=O)NC2CCCCC2)(c2ccccc2)CC1 [Compound 70] | 9400
5 | N[C@@H](Cc1c[nH]cn1)C(=O)N1CCC(Cc2ccc(-c3ccccc3)cc2)(C(=O)NCC2CCCCC2)CC1 [Compound 9] | 930
6 | CSCC[C@H](N)C(=O)N1CCC(Cc2ccc(I)cc2)(C(=O)NC2CCCCC2)CC1 [Compound 73] | 250
7 | N[C@@H](Cc1c[nH]cn1)C(=O)N1CCC(Cc2ccc([N+](=O)[O-])cc2)(C(=O)NC2CCCCC2)CC1 [Compound 79] | 620
8 | N[C@@H](Cc1cccs1)C(=O)N1CCC(Cc2ccc(-c3ccc(C(F)(F)F)cc3)cc2)(C(=O)NC2CCCCC2)CC1 [Compound 53] | 140
9 | C[C@@H](O)[C@H](N)C(=O)N1CCC(C(=O)NCC2CCCCC2)(c2ccccc2)CC1 [Compound 139] | 2600
10 | CCSCC[C@H](N)C(=O)N1CCC(Cc2ccc(-c3ccccc3)cc2)(C(=O)NCC2CCCCC2)CC1 [Compound 106] | 5600
11 | N[C@@H](Cc1cccs1)C(=O)N1CCC(Cc2cccc(-c3cccc(C(=O)O)c3)c2)(C(=O)NC2CCCCC2)CC1 [Compound 101] | 140
12 | N[C@@H](Cc1ccccc1)C(=O)N1CCC(Cc2ccc(-c3ccccc3)cc2)(C(=O)NCC2CCCCC2)CC1 [Compound 108] | ~4000
13 | CC[C@H](N)C(=O)N1CCC(Cc2ccc(Cl)cc2)(C(=O)OCC2CCCCC2)CC1 [Compound 13] | 4300
14 | COC(=O)[C@H]1CC[C@H](CNC(=O)C2(c3ccccc3)CCN(C(=O)[C@@H](N)Cc3cccs3)CC2)CC1 [Compound 110] | 170
15 | N[C@@H](Cc1ccc(Cl)s1)C(=O)N1CCC(Cc2ccc(-c3ccccc3)cc2)(C(=O)NC2CCCCC2)CC1 [Compound 78] | 5600
16 | N[C@@H](Cc1cccs1)C(=O)N1CCC(Cc2ccc(NS(=O)(=O)C(F)(F)F)cc2)(C(=O)NC2CCCCC2)CC1 [Compound 89] | 150
17 | N[C@@H](Cc1c[nH]cn1)C(=O)N1CCC(Cc2cccnc2)(C(=O)OCC2CCCCC2)CC1 [Compound 25] | 1800
18 | CC[C@H](N)C(=O)N1CCC(Cc2ccc(I)cc2)(C(=O)NC2CCCCC2)CC1 [Compound 77] | 2300
19 | N[C@@H](Cc1cccs1)C(=O)N1CCC(C(=O)N[C@H]2CC[C@H](O)CC2)(c2cc(C(F)(F)F)cc(C(F)(F)F)c2)CC1 [Compound 120] | 230
20 | N[C@@H](Cc1c[nH]cn1)C(=O)N1CCC(Cc2cccnc2)(C(=O)NC2CCCCC2)CC1 [Compound 68] | 910
21 | CC[C@H](N)C(=O)N1CCC(Cc2ccccc2)(C(=O)OCC2CCCCC2)CC1 [Compound 10] | ~5000
22 | CC[C@H](N)C(=O)N1CCC(Cc2cccnc2)(C(=O)OCC2CCCCC2)CC1 [Compound 23] | 8200
23 | CCC[C@H](N)C(=O)N1CCC(Cc2cccnc2)(C(=O)NCC2CCCCC2)CC1 [Compound 136] | 6500

Compounds with a lower IC50, results first:

Row | IC50 [nM] | Compound
24 | 130 | N[C@@H](Cc1cccs1)C(=O)N1CCC(Cc2ccncc2)(C(=O)NCC2CCOCC2)CC1 [Compound 121]
25 | 110 | N[C@@H](Cc1cccs1)C(=O)N1CCC(C(=O)N[C@H]2CC[C@H](O)CC2)(c2ccccc2)CC1 [Compound 85]
26 | 84 | N[C@@H](Cc1cccs1)C(=O)N1CCC(Cc2ccc(-c3ccccc3)cc2)(C(=O)NCC2CCCCC2)CC1 [Compound 3, (S)-1-(2-amino-3-(thiophen-2-yl)propanoyl)-4-(biphenyl-4-ylmethyl)-N-(cyclohexylmethyl)piperidine-4-carboxamide hydrochloride]
27 | 47 | NC(=O)c1ccc(CC2(C(=O)NC3CCCCC3)CCN(C(=O)[C@@H](N)Cc3cccs3)CC2)cc1 [Compound 61]
28 | 45 | N[C@@H](Cc1cccs1)C(=O)N1CCC(Cc2cccc(-c3ccc(O)nc3)c2)(C(=O)NC2CCCCC2)CC1 [Compound 98]
29 | 39 | N[C@@H](Cc1cccs1)C(=O)N1CCC(Cc2ccc(-c3cccnc3Cl)cc2)(C(=O)NC2CCCCC2)CC1 [Compound 48]
30 | 38 | COc1ncccc1-c1ccc(CC2(C(=O)NC3CCCCC3)CCN(C(=O)[C@@H](N)Cc3cccs3)CC2)cc1 [Compound 46]
31 | 36.3 | N[C@@H](Cc1cccs1)C(=O)N1CCC(Cc2ccc(C(=O)N3CCOCC3)cc2)(C(=O)NC2CCCCC2)CC1 [Compound 57]
32 | 35 | N#Cc1ccc(-c2ccc(CC3(C(=O)NC4CCCCC4)CCN(C(=O)[C@@H](N)Cc4cccs4)CC3)cc2)cc1 [Compound 51]
33 | 35 | N[C@@H](Cc1cccs1)C(=O)N1CCC(Cc2ccc(-c3ccc4c(c3)OCO4)cc2)(C(=O)NC2CCCCC2)CC1 [Compound 40]
34 | 31 | CS(=O)(=O)Nc1ccc(CC2(C(=O)NC3CCCCC3)CCN(C(=O)[C@@H](N)Cc3cccs3)CC2)cc1 [Compound 88]
35 | 29 | N[C@@H](Cc1cccs1)C(=O)N1CCC(Cc2ccc(-c3cncnc3)cc2)(C(=O)NC2CCCCC2)CC1 [Compound 43]
36 | 24 | N[C@@H](Cc1cccs1)C(=O)N1CCC(Cc2ccc(-c3ccc(O)nc3)cc2)(C(=O)NC2CCCCC2)CC1 [Compound 49]
37 | 23 | N[C@@H](Cc1cccs1)C(=O)N1CCC(C(=O)NCC2CCCCC2)(c2ccccc2)CC1 [Compound 91]
